In brackets after ≈: the same amount, converted by molar mass. Like-named read-outs stand apart in the source and are kept apart here.
Tests used:
[1] = tested on: bacteremia secondary to cUTI/AP; experiment: Efficacy in patients with cUTI or acute pyelonephritis and associated bacteremia; assay type: in vivo, human
Excerpt: The objective of this analysis was to evaluate the efficacy of TBP-PI-HBr in the subset of patients with associated bacteremia from a study of patients with either cUTI or acute pyelonephritis.

[2] = tested on: AmpC production in P. aeruginosa; experiment: AmpC induction (nitrocefin hydrolysis after drug exposure); assay type: cell-based
Protocol: (§1) AmpC induction was determined as follows. Baseline MIC values were determined by broth microdilution method, as described above, for 9 Gram-negative isolates with basal expression of ampC. These isolates were cultured overnight on blood agar plates. A standardized inoculum made from fresh overnight plate cultures was added to flasks containing 50 mL of Luria-Bertani (LB) broth and incubated by shaking at 37° C. to OD600 of 0.3. […] These cultures were incubated under shaking conditions. A 40 mL aliquot of bacterial cultures was sampled at time 0 and 2 hours after drug exposures. Each sample aliquot was harvested by centrifugation and the supernatant was discarded.
(§2) Protein crude extract preparations were made in 200 μL of BugBusterR (Novagen, Darmstadt, Germany) per manufacturer instructions and cell debris was removed by centrifugation. Protein concentrations were determined in each crude extract by standard methodologies.
(§3) AmpC induction was measured by the intensity of β-lactamase hydrolytic activity against 0.1 mM nitrocefin in 0.1 M phosphate buffer at pH 7.0 using spectrophotometry at 482 nm (Δ absorbance/minute/mg of protein). The drug exposure conditions that caused a >4-fold increase in hydrolysis activity compared to the baseline were subjected to postinduction experiments. Briefly, cells were grown under the same conditions as before and tested for susceptibility by broth microdilution.

[3] = tested on: AmpC production in Enterobacterales; experiment: as above; assay type: cell-based; details: tebipenem/imipenem except for C. koseri and S. marcescens
Protocol: as §1, §2, §3

E. coli [4] = experiment: Broth microdilution MIC against characterized subsets of UTI E. coli (2018-2020); assay type: cell-based; details: for MIC50 / MIC90: Escherichia coli; for MIC50: read-out: MIC50; for MIC90: read-out: MIC90
Excerpt: Isolates were collected from medical centers in all 9 US Census Regions and tested by broth microdilution. MIC interpretation was based on CLSI. Isolates that met MIC criteria were subjected to genome sequencing, followed by screening of extended-spectrum b-lactamase (ESBL) genes and epidemiology typing (MLST).

E. coli [5] = experiment: Susceptibility of E. coli from urinary tract infections, 18 EU countries 2020 (STEWARD); assay type: cell-based
Protocol: The study assessed the prevalence of resistance and evaluated the activity of oral tebipenem (TBP) and comparators against EC from urinary tract infections.
Results were interpreted using EUCAST criteria. […] ESBL phenotypes were determined by CLSI criteria and sequenced to identify CTX-M-15 genotype and clonal complex ST131.

[6] = tested on: other methicillin-susceptible coagulase-negative staphylococci (MSCONS); experiment: Broth microdilution against Gram-positive clinical isolates; assay type: cell-based; details: 29 isolates
Protocol: The purpose of this study was to investigate the in vitro activity of tebipenem and comparator agents, including ertapenem and meropenem, against a recent collection of Gram-positive isolates associated with clinical infections. The susceptibility of 580 Gram-positive organisms were tested, including: […] Bacterial species were identified by JMI Laboratories using standard microbiology methods and matrix-assisted laser desorption ionization-time of flight mass spectrometry (Bruker Daltonics, Bremen, Germany). […] Isolates were tested in a central laboratory (JMI Laboratories) for antimicrobial susceptibility using the CLSI […] (2018) reference broth microdilution method. JMI Laboratories produced frozen-form 96-well panels and used cation-adjusted Mueller-Hinton broth (CA-MHB) as the testing medium. […] Quality control organisms include Escherichia coli ATCC 25922, Escherichia coli ATCC 35218, Enterococcus faecalis ATCC 29212, Pseudomonas aeruginosa ATCC 27853, and Staphylococcus aureus ATCC 29213 were tested concurrently with clinical isolates.

P. mirabilis = experiment: Broth microdilution against US UTI pathogens 2019-2020; assay type: cell-based; details: P. mirabilis (235), cefuroxime: oral breakpoint
Protocol: (§4) This study assessed the in vitro activity of tebipenem and comparator agents against Enterobacterales (ENT) responsible for UTIs in the US during 2019-2020. A total of 3,576 ENT recovered from urine samples during the 2019-2020 STEWARD Surveillance Program were included in the study. Isolates were collected from medical centers in all 9 US Census Regions and were centrally tested for susceptibility by reference broth microdilution method. MIC interpretation was performed based on CLSI criteria.

Enterobacterales (ENT) = experiment: as above; assay type: cell-based
Protocol: as §4

E. coli [7] = experiment: as above; assay type: cell-based; details: E. coli (2,339); cefuroxime: oral breakpoint
Protocol: as §4

K. pneumoniae = experiment: as above; assay type: cell-based; details: K. pneumoniae (511)
Protocol: as §4

C[C@@H](O)[C@H]1C(=O)N2C(C(=O)O)=C(S[C@@H]3CN[C@H](C(=O)Nc4cccc(C(=O)O)c4)C3)[C@H](C)[C@H]12 [Ertapenem, ertapenem]
Clinical cure rate ([1]; EOT): 100%
Clinical cure rate ([1]; TOC): 94.3%
Overall response rate ([1]; end-of-treatment (EOT)): 96.2%
Clinical cure rate ([1]; late-follow-up (LFU) visit): approximately 89%
Overall response rate ([1]; test-of-cure (TOC)): 66.0%
effect of exposure on production of AmpC [2]: not observed
effect of exposure on production of AmpC [3]: did not seem to affect production of AmpC
% susceptible by CLSI M100 criteria (E. coli [4]; CMYb (33)): 90.6%
% susceptible by CLSI M100 criteria (E. coli [4]; CTX-M a): 98.9%
% susceptible by CLSI M100 criteria (E. coli [4]; DHA(7)): 85.7%
% susceptible by CLSI M100 criteria (E. coli [4]; ESBL (360)): 97.4%
MIC50 (E. coli [4]; CMYb (33)): 0.06 µg/mL (≈ 0.126 µM)
MIC50 (E. coli [4]; CTX-M a): 0.03 µg/mL (≈ 0.0631 µM)
MIC90 (E. coli [4]; CTX-M a): 0.12 µg/mL (≈ 0.252 µM)
MIC50 (E. coli [4]; DHA(7)): 0.06 µg/mL (≈ 0.126 µM)
MIC50 (E. coli [4]; ESBL (360)): 0.03 µg/mL (≈ 0.0631 µM)
MIC90 (E. coli [4]; ESBL (360)): 0.12 µg/mL (≈ 0.252 µM)
MIC50 (E. coli [4]; Non-ESBL (2035)): ≤ 0.008 µg/mL
MIC90 (E. coli [4]; Non-ESBL (2035)): 0.015 µg/mL (≈ 0.0315 µM)
MIC50 (E. coli [4]; Non-ST131 (203)): 0.015 µg/mL (≈ 0.0315 µM)
MIC90 (E. coli [4]; ST131 (222)): 0.06 µg/mL (≈ 0.126 µM)
% susceptible by CLSI M100 criteria (E. coli [4]; Non-ESBL (2035)): 100%
% susceptible by CLSI M100 criteria (E. coli [4]; Non-ST131 (203)): 97.0%
% susceptible by CLSI M100 criteria (E. coli [4]; ST131 (222)): 99.1%
% susceptible (E. coli [4]; against the various subsets): ≥ 97.0%
susceptibility rates (E. coli [4]; isolates carrying plasmid AmpC): 85.7-90.6%
MIC90 (E. coli [5]; Escherichia coli, all E. coli (764) from UTIs): 0.03 µg/mL (≈ 0.0631 µM)
Susceptibility rate (E. coli [5]; all E. coli, EUCAST criteria): 99.9%
MIC90 [6]: 1 µg/mL (≈ 2.1 µM)
% susceptible; CLSI (P. mirabilis): (100.0) %
% susceptible; CLSI (P. mirabilis; listed as ERT): 100.0%
MIC50 (Enterobacterales (ENT)): ≤ 8 µg/mL
MIC90 (Enterobacterales (ENT); All (3,567)): 30 µg/mL (≈ 63.1 µM)
% susceptible; CLSI (Enterobacterales (ENT); All (3,567), cefuroxime: oral breakpoint): (98.5) %
MIC90 (Enterobacterales (ENT); against ENT, EC, and KPN): 0.03 µg/mL (≈ 0.0631 µM)
% susceptible; CLSI (E. coli [7]): (99.6) %
% susceptible; CLSI (K. pneumoniae; cefuroxime: oral breakpoint): (96.3) %
MIC50 (K. pneumoniae; Klebsiella pneumoniae, read-out: MIC50): ≤ 8 µg/mL

Reference: patent US12048691B2 (SPERO THERAPEUTICS, INC., priority 2020, dated 2024)
